Assay results published in ChEMBL document CHEMBL3045835, “Comparative study of conventional and microwave-assisted synthesis of some Schiff bases and their potential as antimicrobial agents” (2012).
Converted amounts (≈) assume the structure as drawn.

Tests used:
Assay type in all cases: functional
Pseudomonas aeruginosa [1] = assay: Antibacterial activity against Pseudomonas aeruginosa MTCC 424 after 24 hr by broth dilution method; settings: MTCC 424, 24 h
Micrococcus luteus = assay: Antibacterial activity against Micrococcus luteus MTCC 1538 after 24 hr by broth dilution method; settings: MTCC 1538, 24 h
Bacillus pumilus = assay: Antibacterial activity against Bacillus pumilus MTCC 1456 after 24 hr by broth dilution method; settings: MTCC 1456, 24 h
Staphylococcus aureus = assay: Antibacterial activity against Staphylococcus aureus MTCC 1430 after 24 hr by broth dilution method; settings: MTCC 1430, 24 h
Bacillus subtilis = assay: Antibacterial activity against Bacillus subtilis MTCC 441 after 24 hr by broth dilution method; settings: MTCC 441, 24 h
Pseudomonas fluorescens [2] = assay: Antibacterial activity against Pseudomonas fluorescens MTCC 2421 at 1000 ug/ml after 18 hr by cup-plate method; settings: MTCC 2421, 18 h, read-out: DIZ
Pseudomonas fluorescens [3] = assay: Antibacterial activity against Pseudomonas fluorescens MTCC 2421 at 1500 ug/ml after 18 hr by cup-plate method; settings: MTCC 2421, 18 h, read-out: DIZ
Pseudomonas fluorescens [4] = assay: Antibacterial activity against Pseudomonas fluorescens MTCC 2421 at 500 ug/ml after 18 hr by cup-plate method; settings: MTCC 2421, 18 h, read-out: DIZ
Pseudomonas fluorescens [5] = assay: Antibacterial activity against Pseudomonas fluorescens MTCC 2421 at 200 ug/ml after 18 hr by cup-plate method; settings: MTCC 2421, 18 h, read-out: DIZ
Penicillium chrysogenum [6] = assay: Antifungal activity against Penicillium chrysogenum MTCC 161 at 1500 ug/ml after 18 hr by cup-plate method; settings: MTCC 161, 18 h, read-out: DIZ
Penicillium chrysogenum [7] = assay: Antifungal activity against Penicillium chrysogenum MTCC 161 at 1000 ug/ml after 18 hr by cup-plate method; settings: MTCC 161, 18 h, read-out: DIZ
Penicillium chrysogenum [8] = assay: Antifungal activity against Penicillium chrysogenum MTCC 161 at 500 ug/ml after 18 hr by cup-plate method; settings: MTCC 161, 18 h, read-out: DIZ
Penicillium chrysogenum [9] = assay: Antifungal activity against Penicillium chrysogenum MTCC 161 at 200 ug/ml after 18 hr by cup-plate method; settings: MTCC 161, 18 h, read-out: DIZ
Penicillium chrysogenum [10] = assay: Antifungal activity against Penicillium chrysogenum MTCC 161 at 100 ug/ml after 18 hr by cup-plate method; settings: MTCC 161, 18 h, read-out: DIZ
Aspergillus niger [11] = assay: Antifungal activity against Aspergillus niger MTCC 2546 at 1000 ug/ml after 18 hr by cup-plate method; settings: MTCC 2546, 18 h, read-out: DIZ
Aspergillus niger [12] = assay: Antifungal activity against Aspergillus niger MTCC 2546 at 1500 ug/ml after 18 hr by cup-plate method; settings: MTCC 2546, 18 h, read-out: DIZ
Aspergillus niger [13] = assay: Antifungal activity against Aspergillus niger MTCC 2546 at 500 ug/ml after 18 hr by cup-plate method; settings: MTCC 2546, 18 h, read-out: DIZ
Aspergillus niger [14] = assay: Antifungal activity against Aspergillus niger MTCC 2546 at 100 ug/ml after 18 hr by cup-plate method; settings: MTCC 2546, 18 h, read-out: DIZ
Aspergillus niger [15] = assay: Antifungal activity against Aspergillus niger MTCC 2546 at 200 ug/ml after 18 hr by cup-plate method; settings: MTCC 2546, 18 h, read-out: DIZ
Escherichia coli [16] = assay: Antibacterial activity against Escherichia coli MTCC 1573 at 1500 ug/ml after 18 hr by cup-plate method; settings: MTCC 1573, 18 h, read-out: DIZ
Escherichia coli [17] = assay: Antibacterial activity against Escherichia coli MTCC 1573 at 500 ug/ml after 18 hr by cup-plate method; settings: MTCC 1573, 18 h, read-out: DIZ
Escherichia coli [18] = assay: Antibacterial activity against Escherichia coli MTCC 1573 at 1000 ug/ml after 18 hr by cup-plate method; settings: MTCC 1573, 18 h, read-out: DIZ
Escherichia coli [19] = assay: Antibacterial activity against Escherichia coli MTCC 1573 at 200 ug/ml after 18 hr by cup-plate method; settings: MTCC 1573, 18 h, read-out: DIZ
Escherichia coli [20] = assay: Antibacterial activity against Escherichia coli MTCC 1573 at 100 ug/ml after 18 hr by cup-plate method; settings: MTCC 1573, 18 h, read-out: DIZ
Pseudomonas fluorescens [21] = assay: Antibacterial activity against Pseudomonas fluorescens MTCC 2421 at 100 ug/ml after 18 hr by cup-plate method; settings: MTCC 2421, 18 h, read-out: DIZ
Pseudomonas aeruginosa [22] = assay: Antibacterial activity against Pseudomonas aeruginosa MTCC 424 at 1500 ug/ml after 18 hr by cup-plate method; settings: MTCC 424, 18 h, read-out: DIZ
Pseudomonas aeruginosa [23] = assay: Antibacterial activity against Pseudomonas aeruginosa MTCC 424 at 1000 ug/ml after 18 hr by cup-plate method; settings: MTCC 424, 18 h, read-out: DIZ

Structure (SMILES): Clc1ccc(/N=C/c2cccs2)cc1
- MIC (Pseudomonas aeruginosa [1]): 300 mg/L (≈ 1350 µM)
- MIC (Micrococcus luteus): 400 mg/L (≈ 1800 µM)
- MIC (Bacillus pumilus): 200 mg/L (≈ 902 µM)
- MIC (Staphylococcus aureus): 300 mg/L (≈ 1350 µM)
- MIC (Bacillus subtilis): 400 mg/L (≈ 1800 µM)
- zone of inhibition at 1000 µg/mL (Pseudomonas fluorescens [2]): 18 mm
- zone of inhibition at 1500 µg/mL (Pseudomonas fluorescens [3]): 20 mm
- zone of inhibition at 500 µg/mL (Pseudomonas fluorescens [4]): 16 mm
- zone of inhibition at 200 µg/mL (Pseudomonas fluorescens [5]): 13 mm
- zone of inhibition at 1500 µg/mL (Penicillium chrysogenum [6]): 19 mm
- zone of inhibition at 1000 µg/mL (Penicillium chrysogenum [7]): 17 mm
- zone of inhibition at 500 µg/mL (Penicillium chrysogenum [8]): 16 mm
- zone of inhibition at 200 µg/mL (Penicillium chrysogenum [9]): 14 mm
- zone of inhibition at 100 µg/mL (Penicillium chrysogenum [10]): 13 mm
- zone of inhibition at 1000 µg/mL (Aspergillus niger [11]): 17 mm
- zone of inhibition at 1500 µg/mL (Aspergillus niger [12]): 18 mm
- zone of inhibition at 500 µg/mL (Aspergillus niger [13]): 12 mm
- zone of inhibition at 100 µg/mL (Aspergillus niger [14]): 10 mm
- zone of inhibition at 200 µg/mL (Aspergillus niger [15]): 11 mm
- zone of inhibition at 1500 µg/mL (Escherichia coli [16]): 20 mm
- zone of inhibition at 500 µg/mL (Escherichia coli [17]): 16 mm
- zone of inhibition at 1000 µg/mL (Escherichia coli [18]): 19 mm
- zone of inhibition at 200 µg/mL (Escherichia coli [19]): 15 mm
- zone of inhibition at 100 µg/mL (Escherichia coli [20]): 13 mm
- zone of inhibition at 100 µg/mL (Pseudomonas fluorescens [21]): 11 mm
- zone of inhibition at 1500 µg/mL (Pseudomonas aeruginosa [22]): 19 mm
- zone of inhibition at 1000 µg/mL (Pseudomonas aeruginosa [23]): 17 mm
